Experimental data from patent US8192951B2, “Glycolysis-inhibiting substances in cell culture” (Wyeth LLC, priority 2006, dated 2012).

What was measured:
[1] = test system: α-GDF-8 cells (CHO cells engineered to express a monoclonal antibody against GDF-8); test: Cell growth of α-GDF-8 cells in culture dishes with varying 2-deoxyglucose (Example 1); assay type: cell-based, Chinese Hamster
Procedure: Materials and Methods: Chinese Hamster Ovary (“CHO”) cells engineered to express a monoclonal antibody against growth and differentiation factor 8 (“α-GDF-8 cells”) (see […] et al., Neutralizing Antibodies Against GDF-8 and Uses Therefor, US20040142382 A1) were grown in culture dishes in Medium 1 supplemented with glucose to a final initial concentration of 9 g/L with varying concentrations of 2-deoxyglucose.

α-GDF-8 cells [2] = test: Lactate, growth, viability and titer of α-GDF-8 cells in culture dishes, two passages (Example 2); assay type: cell-based, Chinese Hamster; parameters: key to Gluc: glucose in g/L; viab: unit not given here
Procedure: Materials and Methods: α-GDF-8 cells were grown in culture dishes in Medium 1 containing approximately 6 g/L glucose with varying concentrations of 2-deoxyglucose. Some α-GDF-8 cultures were optionally supplemented with glucose to a final initial concentration of 9 g/L. Cells were passaged twice and grown for three days after each passage. At the end of three days, each of the passaged cultures was measured for viability, cell density, glucose levels, lactate levels and α-GDF-8 titer. Specific titer production rate (“Qp”) and specific lactate uptake rate (“Qlact”) were calculated. Qlact was calculated as follows: ((final lactate level−initial lactate level)/(final cell density−initial cell density))×growth rate×24, where lactate levels are measured in g/L, cell densities are measured in 10^6 cells/ml, growth rate is measured as l/h, and the final Qlact is calculated as mg/e6/day. Qp was calculated as follows: ((final titer−initial titer)/(final cell density−initial cell density))×growth rate×24, where titer is measured in mg/L, cell density is measured in 10^6 cells/ml, growth rate is measured as 1/h, and Qp is calculated as μg/e6/day.

α-GDF-8 cells [3] = test: α-GDF-8 cells in 1 L Bioreactors, shift on day 4 or day 6 (Example 3); assay type: cell-based, Chinese Hamster
Procedure: Materials and Methods: α-GDF-8 cells were grown in Medium 2 in 1 L Bioreactors and fed with Medium 3. Some of the cultures were supplemented with 0.5 g/L 2-deoxyglucose at the beginning of the culture. The cultures were shifted from 37° Celsius to 31° Celsius on either day 4 (“early shift”) or day 6 (“late shift”). [table]

α-GDF-8 cells [4] = test: α-GDF-8 cells in 1 L Bioreactors, shift on day 5 or day 6 (Example 4); assay type: cell-based, Chinese Hamster
Procedure: Materials and Methods: α-GDF-8 cells were grown in Medium 2 in 1 L Bioreactors and fed with Medium 3. Some of the cultures were supplemented with 0.5 g/L 2-deoxyglucose at the beginning of the culture. The cells were fed with either 3 g/L glucose or 0.3 g/L 2-deoxyglucose on day 4 and with either 10% feed medium (by volume) or 10% feed medium (by volume) supplemented with 0.2 g/L 2-deoxyglucose on day 5. The cultures were shifted from 37° Celsius to 31° Celsius on either day 5 (“early shift”) or day 6 (“late shift”). Additional feeds were provided on days 7 and 10. [table]

α-GDF-8 cells [5] = test: α-GDF-8 cells in 1 L Bioreactors in the presence of high glucose (Example 5); assay type: cell-based, Chinese Hamster; details: 0.5 g/L 2-deoxyglucose
Procedure: Materials and Methods: α-GDF-8 cells were grown in Medium 2 in 1 L Bioreactors and fed with Medium 3. The starting culture media were either supplemented or not with 0.5 g/L 2-deoxyglucose. The cells were fed on days 3, 5, 7, 10 and 12 to keep the glucose level at above approximately 8 g/L. The cultures lacking 2-deoxyglucose were shifted from 37° Celsius to 31° Celsius on day 4, while the cultures containing 2-deoxyglucose were shifted from 37° Celsius to 31° Celsius on day 5.

rats = details: fed to rats, without decreasing total food intake; cited from earlier work
[6] = first passage, 0.25 g/L deoxyglucose, 9 g/L glucose
[7] = first passage, 0.5 g/L deoxyglucose, 6 g/L glucose
[8] = first passage, 0.5 g/L deoxyglucose, 9 g/L glucose
[9] = first passage, 1 g/L deoxyglucose, 9 g/L glucose
[10] = second passage, 0.25 g/L deoxyglucose, 9 g/L glucose
[11] = second passage, 0.5 g/L deoxyglucose, 6 g/L glucose
[12] = second passage, 0.5 g/L deoxyglucose, 9 g/L glucose
[13] = second passage, 1 g/L deoxyglucose, 6 g/L glucose
[14] = second passage, 1 g/L deoxyglucose, 9 g/L glucose
[15] = 0.5 g/L 2-deoxyglucose, early shift (day 4)
[16] = 0.5 g/L 2-deoxyglucose, late shift (day 6)

O=CC[C@@H](O)[C@H](O)[C@H](O)CO [2-deoxyglucose]
specific growth rate (μ) ([1]; 1 g/L 2-deoxyglucose, 9 g/L glucose (ratio 1:9)): over 0.02 l/h
specific growth rate (μ) ([1]; 2.5 g/L 2-deoxyglucose, 9 g/L glucose): approximately 0.015 l/h
effect of increasing amounts on specific growth rate ([1]; 9 g/L glucose): reduced the specific growth rate in a dose-dependent manner
effect on accumulation of lactate (α-GDF-8 cells [2]; culture dishes, dose-dependent): reduced the accumulation of lactate in the culture in a dose-dependent manner
effect on specific growth rate (α-GDF-8 cells [2]; culture dishes, dose-dependent): negatively affected
effect on α-GDF-8 titer (α-GDF-8 cells [2]; culture dishes, dose-dependent): reduced the α-GDF-8 titer in a dose-dependent manner
Gluc (α-GDF-8 cells [2]; [6]): 7.55
Qlact (α-GDF-8 cells [2]; [6]): 0.899 mg/e6/day
c.d (end) (α-GDF-8 cells [2]; [6]): 1.3 10^6 cells/ml
lact (α-GDF-8 cells [2]; [6]): 1.53 g/L
viab (α-GDF-8 cells [2]; [6]): 99.7
μ (specific growth rate) (α-GDF-8 cells [2]; [6]): 0.032 h⁻¹
Gluc (α-GDF-8 cells [2]; [7]): 5.21
Qlact (α-GDF-8 cells [2]; [7]): 0.701 mg/e6/day
c.d (end) (α-GDF-8 cells [2]; [7]): 1.24 10^6 cells/ml
lact (α-GDF-8 cells [2]; [7]): 1.2 g/L
viab (α-GDF-8 cells [2]; [7]): 99.1
μ (specific growth rate) (α-GDF-8 cells [2]; [7]): 0.03 h⁻¹
Gluc (α-GDF-8 cells [2]; [8]): 7.88
Qlact (α-GDF-8 cells [2]; [8]): 0.727 mg/e6/day
c.d (end) (α-GDF-8 cells [2]; [8]): 1.12 10^6 cells/ml
lact (α-GDF-8 cells [2]; [8]): 1.22 g/L
viab (α-GDF-8 cells [2]; [8]): 99.3
μ (specific growth rate) (α-GDF-8 cells [2]; [8]): 0.028 h⁻¹
Gluc (α-GDF-8 cells [2]; [9]): 8.13
Qlact (α-GDF-8 cells [2]; [9]): 0.553 mg/e6/day
c.d (end) (α-GDF-8 cells [2]; [9]): 1.05 10^6 cells/ml
lact (α-GDF-8 cells [2]; [9]): 0.9 g/L
viab (α-GDF-8 cells [2]; [9]): 99.7
μ (specific growth rate) (α-GDF-8 cells [2]; [9]): 0.027 h⁻¹
Gluc (α-GDF-8 cells [2]; [10]): 7.25
Qlact (α-GDF-8 cells [2]; [10]): 0.576 mg/e6/day
Qp (α-GDF-8 cells [2]; [10]): 15.477 μg/e6/day
c.d (end) (α-GDF-8 cells [2]; [10]): 3.2 10^6 cells/ml
lact (α-GDF-8 cells [2]; [10]): 2.17 g/L
titer (α-GDF-8) (α-GDF-8 cells [2]; [10]): 58.28 mg/L
viab (α-GDF-8 cells [2]; [10]): 99.5
μ (specific growth rate) (α-GDF-8 cells [2]; [10]): 0.035 h⁻¹
Gluc (α-GDF-8 cells [2]; [11]): 5.04
Qlact (α-GDF-8 cells [2]; [11]): 0.415 mg/e6/day
Qp (α-GDF-8 cells [2]; [11]): 13.135 μg/e6/day
c.d (end) (α-GDF-8 cells [2]; [11]): 2.6 10^6 cells/ml
lact (α-GDF-8 cells [2]; [11]): 1.36 g/L
titer (α-GDF-8) (α-GDF-8 cells [2]; [11]): 43 mg/L
viab (α-GDF-8 cells [2]; [11]): 99
μ (specific growth rate) (α-GDF-8 cells [2]; [11]): 0.033 h⁻¹
Gluc (α-GDF-8 cells [2]; [12]): 7.65
Qlact (α-GDF-8 cells [2]; [12]): 0.506 mg/e6/day
Qp (α-GDF-8 cells [2]; [12]): 14.252 μg/e6/day
c.d (end) (α-GDF-8 cells [2]; [12]): 2.8 10^6 cells/ml
lact (α-GDF-8 cells [2]; [12]): 1.79 g/L
titer (α-GDF-8) (α-GDF-8 cells [2]; [12]): 50.37 mg/L
viab (α-GDF-8 cells [2]; [12]): 99.6
μ (specific growth rate) (α-GDF-8 cells [2]; [12]): 0.033 h⁻¹
Gluc (α-GDF-8 cells [2]; [13]): 6.51
Qlact (α-GDF-8 cells [2]; [13]): 0.290 mg/e6/day
Qp (α-GDF-8 cells [2]; [13]): 12.038 μg/e6/day
c.d (end) (α-GDF-8 cells [2]; [13]): 1.5 10^6 cells/ml
lact (α-GDF-8 cells [2]; [13]): 0.68 g/L
titer (α-GDF-8) (α-GDF-8 cells [2]; [13]): 28.22 mg/L
viab (α-GDF-8 cells [2]; [13]): 98.6
μ (specific growth rate) (α-GDF-8 cells [2]; [13]): 0.027 h⁻¹
Gluc (α-GDF-8 cells [2]; [14]): 9
Qlact (α-GDF-8 cells [2]; [14]): 0.290 mg/e6/day
Qp (α-GDF-8 cells [2]; [14]): 12.400 μg/e6/day
c.d (end) (α-GDF-8 cells [2]; [14]): 1.9 10^6 cells/ml
lact (α-GDF-8 cells [2]; [14]): 0.98 g/L
titer (α-GDF-8) (α-GDF-8 cells [2]; [14]): 34.85 mg/L
viab (α-GDF-8 cells [2]; [14]): 99
μ (specific growth rate) (α-GDF-8 cells [2]; [14]): 0.028 h⁻¹
Qlact (α-GDF-8 cells [2]; second passage, 1 g/L deoxyglucose, 9 g/L glucose, listed as 2-Deoxyglucose): 0.349 mg/e6/day
effect on viability of the cells (α-GDF-8 cells [2]; up to a ratio of 2-deoxyglucose to glucose of 1 to 6): largely unaffected
final titer vs culture lacking 2-deoxyglucose (α-GDF-8 cells [3]; [15]): slightly higher
lactate levels vs culture lacking 2-deoxyglucose (α-GDF-8 cells [3]; [15]): slightly lower
cell density at the time of the shift (α-GDF-8 cells [3]; [16]): approximately 18 ×e^6/mL
final titer vs culture lacking 2-deoxyglucose (α-GDF-8 cells [3]; [16]): slightly higher
lactate level at the time of the shift (α-GDF-8 cells [3]; [16]): approximately 6 g/L
lactate levels vs culture lacking 2-deoxyglucose (α-GDF-8 cells [3]; [16]): slightly lower
viability vs late shifted cells without 2-deoxyglucose (α-GDF-8 cells [3]; [16]): significantly higher
cell density vs the other three conditions (α-GDF-8 cells [3]; 0.5 g/L 2-deoxyglucose, late shift (day 6), from approximately day 4): significantly higher
lactate level at the time of the shift (α-GDF-8 cells [3]; early shift (day 4), stated for the two early shifted cultures, with and without 2-deoxyglucose): 4 to 5 g/L
final lactate concentration vs early shifted cultures (α-GDF-8 cells [4]; [16]): lower
α-GDF-8 produced per cell vs other three conditions (α-GDF-8 cells [4]; [16]): less α-GDF-8 per cell
cell density vs the other three conditions (α-GDF-8 cells [4]; 0.5 g/L 2-deoxyglucose, late shift (day 6), from approximately day 5): significantly higher
glucose uptake (α-GDF-8 cells [4]; 2-deoxyglucose in the culture medium, early and late shift): decrease
overall titer of α-GDF-8 vs other culture conditions (α-GDF-8 cells [4]; all four culture conditions): similar
lactate accumulation vs cultures lacking 2-deoxyglucose (α-GDF-8 cells [5]; glucose above approximately 8 g/L, shift day 5): significantly lower
α-GDF-8 titer vs culture lacking 2-deoxyglucose (α-GDF-8 cells [5]; high glucose, by day 14): slightly higher
cell density vs culture lacking 2-deoxyglucose (α-GDF-8 cells [5]; high glucose, middle stage of the culture): slightly higher
overall integrated viable cell density vs cells without 2-deoxyglucose (α-GDF-8 cells [5]; high glucose, shifted one day later): higher
glucose/energy flux (rats): reduces glucose/energy flux
